Laboratory results published in patent publication US9085603B2, “Progesterone receptor antagonists” (Bayer Intellectual Property GmbH, priority 2010, dated 2015).
pIC50: −log10 of the molar value.

What was measured:
[1] = molecular target: T1, human progesterone receptor B (Homo sapiens, UniProt P06401); experiment: Progesterone receptor antagonistic effect in stably transfected SK-N-MC cells, MTV-LUC reporter (PR-B); format: cell-based; details: antagonism of 0.1 nmol/l promegestone, luciferase reporter, 24 hours
T1 construct: expressed in transfected cells; host or cells: SK-N-MC human neuroblastoma cells, stably transfected with pRChPR-B-neo and pMMTV-LUC
T1 sequence (P06401 1-933): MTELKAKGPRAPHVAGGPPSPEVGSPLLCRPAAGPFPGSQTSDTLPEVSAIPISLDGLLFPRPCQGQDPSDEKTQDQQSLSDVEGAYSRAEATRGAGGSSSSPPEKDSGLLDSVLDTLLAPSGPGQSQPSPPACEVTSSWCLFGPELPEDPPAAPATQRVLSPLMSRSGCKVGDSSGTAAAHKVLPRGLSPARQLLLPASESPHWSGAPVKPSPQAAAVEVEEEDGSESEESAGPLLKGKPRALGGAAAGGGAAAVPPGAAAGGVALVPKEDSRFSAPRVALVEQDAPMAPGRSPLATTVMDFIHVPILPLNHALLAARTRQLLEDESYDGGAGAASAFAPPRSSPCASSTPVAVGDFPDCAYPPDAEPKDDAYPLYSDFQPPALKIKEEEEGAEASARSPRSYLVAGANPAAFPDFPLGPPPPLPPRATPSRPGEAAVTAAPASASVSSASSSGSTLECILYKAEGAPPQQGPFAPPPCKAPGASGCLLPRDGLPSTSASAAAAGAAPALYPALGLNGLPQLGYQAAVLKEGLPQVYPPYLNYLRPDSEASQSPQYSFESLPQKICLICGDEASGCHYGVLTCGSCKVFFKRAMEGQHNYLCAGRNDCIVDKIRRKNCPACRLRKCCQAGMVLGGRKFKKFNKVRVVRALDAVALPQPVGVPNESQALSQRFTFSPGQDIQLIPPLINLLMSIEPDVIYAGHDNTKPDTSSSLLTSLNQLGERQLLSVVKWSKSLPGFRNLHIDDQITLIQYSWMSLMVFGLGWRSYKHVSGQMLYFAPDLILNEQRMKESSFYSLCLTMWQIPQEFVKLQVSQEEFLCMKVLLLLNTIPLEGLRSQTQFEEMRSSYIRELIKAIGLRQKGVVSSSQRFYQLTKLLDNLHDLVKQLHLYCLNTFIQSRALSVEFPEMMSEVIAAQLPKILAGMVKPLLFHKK
Method: (§1) Progesterone Receptor Antagonistic Effect in Stable Transfectants of Human Neuroblastoma Cells (SK-N-MC cells) with the Human Progesterone A or Progesterone B Receptor and a MTV-LUC Reporter Construct
(§2) SK-N-MC cells (human neuroblastoma cells), which have been stably transfected with plasmids which express the human progesterone receptor B (pRChPR-B-neo) or the human progesterone receptor A (pRChPR-A-neo) and a reporter construct (pMMTV-LUC), were incubated for 24 hours either in the absence (negative control) or in the presence of increasing amounts of the particular test compound (0.01 nmol/l, 0.1 nmol/l, 1 nmol/l, 10 nmol/l, 100 nmol/l and 1 μmol/l) in order to determine the agonistic efficacy. As a positive control of the reporter gene induction, the cells were treated with the synthetic gestagen promegestone (0.01 nmol/l, 0.1 nmol/l, 1 nmol/l, 10 nmol/l, 100 nmol/l and 1 μmol/l). To determine the antagonistic activity, the cells were treated with 0.1 nmol/l of promegestone and additionally with increasing amounts of the particular test compound (0.01 nmol/l, 0.1 nmol/l, 1 nmol/l, 10 nmol/l, 100 nmol/l and 1 μmol/l). The activity of the reporter gene LUC (LUC=luciferase) was determined in the cell lysates and measured as RLU (relative light units). All measurement values are given as percentage efficacy and as EC50 or IC50 concentrations.

[2] = molecular target: T2, human progesterone receptor A (Homo sapiens, UniProt P06401); experiment: Progesterone receptor antagonistic effect in stably transfected SK-N-MC cells, MTV-LUC reporter (PR-A); format: cell-based; details: antagonism of 0.1 nmol/l promegestone, luciferase reporter, 24 hours
T2 construct: expressed in transfected cells; host or cells: SK-N-MC human neuroblastoma cells, stably transfected with pRChPR-A-neo and pMMTV-LUC
T2 sequence (P06401 1-769 isoform P06401-2): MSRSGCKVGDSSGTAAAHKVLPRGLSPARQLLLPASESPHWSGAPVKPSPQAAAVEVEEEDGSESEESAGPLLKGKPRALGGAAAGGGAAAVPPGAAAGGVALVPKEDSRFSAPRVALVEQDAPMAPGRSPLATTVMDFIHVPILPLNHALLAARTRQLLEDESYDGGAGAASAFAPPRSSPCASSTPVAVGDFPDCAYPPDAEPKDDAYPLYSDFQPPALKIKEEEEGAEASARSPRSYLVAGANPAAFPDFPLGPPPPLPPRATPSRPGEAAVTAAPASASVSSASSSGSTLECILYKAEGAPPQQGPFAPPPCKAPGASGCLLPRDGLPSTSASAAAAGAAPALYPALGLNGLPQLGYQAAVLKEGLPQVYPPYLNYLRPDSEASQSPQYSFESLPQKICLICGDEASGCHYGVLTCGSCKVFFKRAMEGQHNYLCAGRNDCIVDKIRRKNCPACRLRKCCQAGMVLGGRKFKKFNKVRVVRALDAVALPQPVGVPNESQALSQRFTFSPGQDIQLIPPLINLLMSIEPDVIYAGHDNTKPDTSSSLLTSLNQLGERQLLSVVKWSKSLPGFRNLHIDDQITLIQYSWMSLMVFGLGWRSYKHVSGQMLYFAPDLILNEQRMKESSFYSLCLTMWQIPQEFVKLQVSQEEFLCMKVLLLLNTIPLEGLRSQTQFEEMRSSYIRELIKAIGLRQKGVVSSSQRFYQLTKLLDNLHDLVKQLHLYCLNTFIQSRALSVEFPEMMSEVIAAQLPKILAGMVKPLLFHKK
Method: as §1, §2

Structure (SMILES) | pIC50 [1] | pIC50 [2]
CN1CCN(Cc2ccc([C@H]3C[C@@]4(C)[C@@H](CC[C@@]4(O)C(F)(F)C(F)(F)F)[C@@H]4CCC5=CC(=O)CCC5=C43)cc2)CC1 [Example 2, (11β,17β)-17-Hydroxy-11-{4-[(4-methylpiperazin-1-yl)methyl]phenyl}-17-(pentafluoroethyl)estra-4,9-dien-3-one] | 8.55 | 
C[C@]12C[C@H](c3ccc(CNc4cccc(S(N)(=O)=O)c4)cc3)C3=C4CCC(=O)C=C4CC[C@H]3[C@@H]1CC[C@@]2(O)C(F)(F)C(F)(F)F [Example 40, 3-({4-[(11β,17β)-17-Hydroxy-3-oxo-17-(pentafluoroethyl)estra-4,9-dien-11-yl]benzyl}amino)benzenesulphonamide] |  | 9.31
C[C@]12C[C@H](c3ccc(CN4CCN(Cc5ccccn5)CC4)cc3)C3=C4CCC(=O)C=C4CC[C@H]3[C@@H]1CC[C@@]2(O)C(F)(F)C(F)(F)F [Example 43, (11β,17β)-17-Hydroxy-17-(pentafluoroethyl)-11-(4-{[4-(pyridin-2-ylmethyl)piperazin-1-yl]methyl}phenyl)estra-4,9-dien-3-one] |  | 8.54
C[C@]12C[C@H](c3ccc(CN4CCN(Cc5cccnc5)CC4)cc3)C3=C4CCC(=O)C=C4CC[C@H]3[C@@H]1CC[C@@]2(O)C(F)(F)C(F)(F)F [Example 44, (11β,17β)-17-Hydroxy-17-(pentafluoroethyl)-11-(4-{[4-(pyridin-3-ylmethyl)piperazin-1-yl]methyl}phenyl)estra-4,9-dien-3-one] |  | 8.51
C[C@]12C[C@H](c3ccc(CNCc4ccncc4)cc3)C3=C4CCC(=O)C=C4CC[C@H]3[C@@H]1CC[C@@]2(O)C(F)(F)C(F)(F)F [Example 47, (11β,17β)-17-Hydroxy-17-(pentafluoroethyl)-11-(4-{[(pyridin-4-ylmethyl)amino]methyl}phenyl)estra-4,9-dien-3-one] |  | 8.57
CN(Cc1ccc([C@H]2C[C@@]3(C)[C@@H](CC[C@@]3(O)C(F)(F)C(F)(F)F)[C@@H]3CCC4=CC(=O)CCC4=C32)cc1)c1ccccc1 [Example 48, (11β,17β)-17-Hydroxy-11-(4-{[methyl(phenyl)amino]methyl}phenyl)-17-(pentafluoroethyl)estra-4,9-dien-3-one] |  | 8.89
C[C@]12C[C@H](c3ccc(CN4CCN(c5ccncc5)CC4)cc3)C3=C4CCC(=O)C=C4CC[C@H]3[C@@H]1CC[C@@]2(O)C(F)(F)C(F)(F)F [Example 50, (11β,17β)-17-Hydroxy-17-(pentafluoroethyl)-11-(4-{[4-(pyridin-4-yl)piperazin-1-yl]methyl}phenyl)estra-4,9-dien-3-one] |  | 8.92
CN(CCc1ccccn1)Cc1ccc([C@H]2C[C@@]3(C)[C@@H](CC[C@@]3(O)C(F)(F)C(F)(F)F)[C@@H]3CCC4=CC(=O)CCC4=C32)cc1 [Example 52, (11β,17β)-17-Hydroxy-11-[4-({methyl[2-(pyridin-2-yl)ethyl]amino}methyl)phenyl]-17-(pentafluoroethyl)estra-4,9-dien-3-one] |  | 8.19
C[C@]12C[C@H](c3ccc(CNc4cccc(C(N)=O)c4)cc3)C3=C4CCC(=O)C=C4CC[C@H]3[C@@H]1CC[C@@]2(O)C(F)(F)C(F)(F)F [Example 53, 3-({4-[(11β,17β)-17-Hydroxy-3-oxo-17-(pentafluoroethyl)estra-4,9-dien-11-yl]benzyl}amino)benzamide] |  | 9.08

Further compounds by rising pIC50 [2], results first:

pIC50 [1] | pIC50 [2] | Structure (SMILES)
 | 7.19 | CN(C)CCN1CCN(Cc2ccc([C@H]3C[C@@]4(C)C(CC[C@@]4(O)C(F)(F)C(F)(F)F)C4CCC5=CC(=O)CCC5=C43)cc2)CC1 (stereo partly drawn) [Example 51, (11β,17β)-11-[4-({4-[2-(Dimethylamino)ethyl]piperazin-1-yl}methyl)phenyl]-17-hydroxy-17-(pentafluoroethyl)estra-4,9-dien-3-one]
 | 7.43 | C[C@]12C[C@H](c3ccc(CN4CCCC4)cc3)C3=C4CCC(=O)C=C4CC[C@H]3[C@@H]1CC[C@@]2(O)C(F)(F)C(F)(F)F [Example 46, (11β,17β)-17-Hydroxy-17-(pentafluoroethyl)-11-[4-(pyrrolidin-1-ylmethyl)phenyl]estra-4,9-dien-3-one]
 | 7.95 | C[C@]12C[C@H](c3ccc(CN4CCC(c5ccccc5)CC4)cc3)C3=C4CCC(=O)C=C4CC[C@H]3[C@@H]1CC[C@@]2(O)C(F)(F)C(F)(F)F [Example 41, (11β,17β)-17-Hydroxy-17-(pentafluoroethyl)-11-{4-[(4-phenylpiperidin-1-yl)methyl]phenyl}estra-4,9-dien-3-one]
8.09 | 8.12 | CN(C)Cc1ccc([C@H]2C[C@@]3(C)C(CC[C@@]3(O)C(F)(F)C(F)(F)F)C3CCC4=CC(=O)CCC4=C32)cc1 (stereo partly drawn) [Example 1, (11β,17β)-11-{4-[(Dimethylamino)methyl]phenyl}-17-hydroxy-17-(pentafluoroethyl)estra-4,9-dien-3-one]
 | 8.78 | CNC(=O)CN1CCN(Cc2ccc([C@H]3C[C@@]4(C)[C@@H](CC[C@@]4(O)C(F)(F)C(F)(F)F)[C@@H]4CCC5=CC(=O)CCC5=C43)cc2)CC1 [Example 45, 2-(4-{4-[(11β,17β)-17-Hydroxy-3-oxo-17-(pentafluoroethyl)estra-4,9-dien-11-yl]benzyl}piperazin-1-yl)-N-methylacetamide]
 | 8.89 | C[C@]12C[C@H](c3ccc(CNc4ccccc4C(N)=O)cc3)C3=C4CCC(=O)C=C4CCC3C1CC[C@@]2(O)C(F)(F)C(F)(F)F (stereo partly drawn) [Example 49, 2-({4-[(11β,17β)-17-Hydroxy-3-oxo-17-(pentafluoroethyl)estra-4,9-dien-11-yl]benzyl}arnino)benzamide]
 | 8.89 | C[C@]12C[C@H](c3ccc(CNc4ccc(C(=O)Nc5ccccc5)cc4)cc3)C3=C4CCC(=O)C=C4CC[C@H]3[C@@H]1CC[C@@]2(O)C(F)(F)C(F)(F)F [Example 54, 4-({4-[(11β,17β)-17-Hydroxy-3-oxo-17-(pentafluoroethyl)estra-4,9-dien-11-yl]benzyl}amino)-N-phenylbenzamide]
 | 9.28 | CN(C)C(=O)N1CCN(Cc2ccc([C@H]3C[C@@]4(C)[C@@H](CC[C@@]4(O)C(F)(F)C(F)(F)F)[C@@H]4CCC5=CC(=O)CCC5=C43)cc2)CC1 [Example 42, 4-{4-[(11β,17β)-17-Hydroxy-3-oxo-17-(pentafluoroethyl)estra-4,9-dien-11-yl]benzyl}-N,N-dimethylpiperazine-1-carboxamide]
